For data set [1], the system named is Mus musculus. The experiment in a line: Cardioprotective activity in C57BL mouse model of left anterior descending coronary artery ligation-induced myocardial ischemia assessed as survival rate at 0.3 mg/kg, iv treated 1 hr after left anterior descending coronary artery ligation and measured after 7 days post LAD. Type of data set: functional.
Data set [2] has as its system Mus musculus. The experiment in a line: Cardioprotective activity in C57BL mouse model of left anterior descending coronary artery ligation-induced myocardial ischemia assessed as reduction in heart infarct size at 0.3 mg/kg, iv pretreated for 1 hr followed by left anterior descending coronary artery ligation. Type of data set: functional, organism-based.
The nature of data set [3]: Hepatotoxicity in C57BL mouse model of left anterior descending coronary artery ligation-induced myocardial ischemia assessed as effect on serum AST levels at 0.05 to 1 mg/kg, iv pretreated for 1 hr followed by left anterior descending coronary artery ligation. In kind it is toxicity, organism-based. Particulars: in vivo.
The subject of data set [4] is Mus musculus. In words: Cardioprotective activity in C57BL mouse model of left anterior descending coronary artery ligation-induced myocardial ischemia assessed as reduction in creatine kinase levels at 0.3 mg/kg, iv treated 1 hr after by left anterior descending coronary artery ligation and measured after 7 days post LAD. In kind it is functional, organism-based.
Data set [5] in a line: Reduction in hypoxia-induced TLR4 mRNA expression in Sprague-Dawley rat cardiomyocytes at 20 uM preincubated for 1 hr followed by hypoxia for 3 hrs by RT-qPCR analysis relative to untreated control. In kind it is functional, Cardiac muscle cell. For orientation: Real-time PCR tracks product formation cycle by cycle.
Data set [6] has as its system Mus musculus. In words: Cardioprotective activity in C57BL mouse model of left anterior descending coronary artery ligation-induced myocardial ischemia assessed as reduction in serum LDH levels at 0.3 mg/kg, iv treated 1 hr after by left anterior descending coronary artery ligation and measured after 7 days post LAD. In kind it is functional, organism-based.
The target in data set [7] is T1, Toll-like receptor 4 (Rattus norvegicus) (UniProt Q9QX05).
T1 sequence (whole entry): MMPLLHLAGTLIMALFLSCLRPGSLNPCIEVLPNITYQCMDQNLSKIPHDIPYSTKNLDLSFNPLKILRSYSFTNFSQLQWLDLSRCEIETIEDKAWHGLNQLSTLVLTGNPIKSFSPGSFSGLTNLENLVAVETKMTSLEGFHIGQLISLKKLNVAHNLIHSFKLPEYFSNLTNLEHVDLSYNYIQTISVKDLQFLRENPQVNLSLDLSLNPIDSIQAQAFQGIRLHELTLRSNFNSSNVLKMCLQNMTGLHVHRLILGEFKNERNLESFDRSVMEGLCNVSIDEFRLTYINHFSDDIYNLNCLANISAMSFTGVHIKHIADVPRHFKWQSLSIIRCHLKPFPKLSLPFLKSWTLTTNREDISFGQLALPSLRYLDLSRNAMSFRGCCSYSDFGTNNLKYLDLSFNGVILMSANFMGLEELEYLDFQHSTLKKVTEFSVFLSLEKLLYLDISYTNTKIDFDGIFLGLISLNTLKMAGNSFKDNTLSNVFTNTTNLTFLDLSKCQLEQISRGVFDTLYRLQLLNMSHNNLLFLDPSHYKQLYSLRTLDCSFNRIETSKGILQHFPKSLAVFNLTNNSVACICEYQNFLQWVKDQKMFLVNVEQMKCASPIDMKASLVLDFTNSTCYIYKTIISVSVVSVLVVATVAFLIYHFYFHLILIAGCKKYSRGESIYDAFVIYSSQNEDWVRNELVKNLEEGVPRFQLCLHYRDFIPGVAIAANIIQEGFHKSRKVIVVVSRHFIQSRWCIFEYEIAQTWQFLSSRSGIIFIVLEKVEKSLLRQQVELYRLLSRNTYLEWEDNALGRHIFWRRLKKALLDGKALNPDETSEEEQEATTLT
In words: Inhibition of TLR4 in Sprague-Dawley rat cardiomyocytes assessed as reduction in hypoxia-induced LDH release at 5 uM preincubated for 1 hr followed by hypoxia for 3 hrs by NADH detection based colorimetric analysis. In kind it is cell-based. On the technique in general: Release of lactate dehydrogenase indicates damage to the cell membrane.

Data set [8] deals with Mus musculus. The experiment in a line: Cardioprotective activity in C57BL mouse model of left anterior descending coronary artery ligation-induced myocardial ischemia assessed as reduction in creatine kinase levels levels at 0.3 mg/kg, iv treated 1 hr after by left anterior descending coronary artery ligation and measured after 24 hrs post LAD. In kind it is functional, organism-based.

Data set [9] relates to Mus musculus. The experiment in a line: Cardioprotective activity in C57BL mouse model of left anterior descending coronary artery ligation-induced myocardial ischemia assessed as reduction in LDH […] levels at 0.3 mg/kg, iv pretreated for 1 hr followed by left anterior descending coronary artery ligation. Type of data set: functional, organism-based.
Data set [10] can be described thus: Reduction in hypoxia-induced TLR4 protein expression in Sprague-Dawley rat cardiomyocytes at 20 uM preincubated for 1 hr followed by hypoxia for 3 hrs by Western blot analysis relative to untreated control. Type of data set: functional, Cardiac muscle cell. Background: A western blot detects proteins with antibodies after separation by electrophoresis.
Data set [11] has as its system Mus musculus. The experiment in a line: Cardioprotective activity in C57BL mouse model of left anterior descending coronary artery ligation-induced myocardial ischemia assessed as reduction in serum LDH levels at 0.3 mg/kg, iv treated for 1 hr after by left anterior descending coronary artery ligation and measured after 24 hrs post LAD. Type of data set: functional, organism-based.

The target in data set [12] is T1, Toll-like receptor 4 (Rattus norvegicus). In words: Inhibition of TLR4 in Sprague-Dawley rat cardiomyocytes assessed as reduction in hypoxia-induced LDH release at 20 uM preincubated for 1 hr followed by hypoxia for 3 hrs by NADH detection based colorimetric analysis. In kind it is cell-based.
Data set [13] shares this target. In words: Inhibition of TLR4 in Sprague-Dawley rat cardiomyocytes assessed as reduction in hypoxia-induced creatine kinase levels at 20 uM preincubated for 1 hr followed by induction of hypoxia measured after 3 hrs by NADP reduction based colorimetric analysis. In kind it is cell-based.
The target is the same in data set [14]. The experiment in a line: Inhibition of TLR4 in Sprague-Dawley rat cardiomyocytes assessed as reduction in hypoxia-induced LDH levels by measuring NADH levels at 20 uM preincubated for 1 hr followed by induction of hypoxia measured after 3 hrs by colorimetric analysis. In kind it is cell-based.
Data set [15] has the same target. The experiment in a line: Inhibition of TLR4 in Sprague-Dawley rat cardiomyocytes assessed as reduction in hypoxia-induced creatine kinase levels at 5 uM preincubated for 1 hr followed by hypoxia for 3 hrs by NADP reduction based colorimetric analysis. Type of data set: cell-based.
Data set [16] has the same target. The experiment in a line: Inhibition of TLR4 in Sprague-Dawley rat cardiomyocytes assessed as reduction in hypoxia-induced LDH release at 30 uM preincubated for 1 hr followed by hypoxia for 3 hrs by NADH detection based colorimetric analysis. In kind it is cell-based.
The test system of data set [17] is Mus musculus. In words: Cardioprotective activity in C57BL mouse model of left anterior descending coronary artery ligation-induced myocardial ischemia assessed as reduction in leukocyte infiltration at 0.3 mg/kg, iv treated 1 hr after left anterior descending coronary artery ligation and measured after 7 days post LAD by hematoxylin/eosin staining based light microscopy. Type of data set: functional, organism-based.

In data set [18] the target is T1, Toll-like receptor 4 (Rattus norvegicus). The experiment in a line: Inhibition of TLR4 in Sprague-Dawley rat cardiomyocytes assessed as reduction in hypoxia-induced TRAM protein expression at 20 uM preincubated for 1 hr followed by hypoxia for 3 hrs by Western blot analysis relative to untreated control. In kind it is cell-based.
Data set [19] has the same target. The experiment in a line: Inhibition of TLR4 in hypoxia-induced Sprague-Dawley rat cardiomyocytes assessed as increase in IkappaB-alpha protein expression at 20 uM preincubated for 1 hr followed by hypoxia for 3 hrs by Western blot analysis relative to untreated control.
Data set [20] has the same target. In words: Inhibition of TLR4 in Sprague-Dawley rat cardiomyocytes assessed as reduction in hypoxia-induced IL-1beta mRNA expression at 20 uM preincubated for 1 hr followed by hypoxia for 3 hrs by RT-qPCR analysis. In kind it is cell-based.
Data set [21] concerns Mus musculus. In words: Cardioprotective activity in C57BL mouse model of left anterior descending coronary artery ligation-induced myocardial ischemia assessed as reduction in heart infarct size at 0.3 mg/kg, iv treated 1 hr after left anterior descending coronary artery ligation and measured after 24 hrs post LAD. In kind it is functional, organism-based.

Each structure is given as a SMILES string. Active and inactive are the calls of the source. No cut-off for these calls is given here.

The text below walks through data of ChEMBL document CHEMBL4382262, “Structurally Simple, Readily Available Peptidomimetic 1-Benzyl-5-methyl-4-( n-octylamino)pyrimidin-2(1 H)-one Exhibited Efficient Cardioprotection in a Myocardial Ischemia (MI) Mouse Model” (J Med Chem, 2018).

`CCCCCCCCNc1nc(=O)n(Cc2ccccc2)cc1C`: the survival at 0.3 mg/kg with Mus musculus [1] turned out to be 100%. Moreover, the outcome with Mus musculus [2], with Mus musculus [4], in the data set with Mus musculus [6], in the data set on Mus musculus [8], in the data set with Mus musculus [9] and in the data set on Mus musculus [11] was Active. Moreover, the result in the data set on Mus musculus [17] was Active. Further, the Activity entry in data set [3] is on record as “Non-Toxic”. The “fold change (FC)” value came out at 3.1 in [5]; 2.7 in [10]; 2.8 in data set [18]; 3.3 in data set [19]; 15 in [20]. Further, the inhibition entry in data set [7] and in [15] was “inactive” throughout. Moreover, the inhibition entry in data set [12], in data set [13], in data set [14] and in data set [16] was “Active” in each case. Besides, in the data set on Mus musculus [21], the result was inactive.
